In US20230365602A1, “COMPOUND FOR USE IN THE TREATMENT OF PROTOZOAL DISEASES AND PROCESS FOR PRODUCTION OF SAID COMPOUND” (QUADREL S.R.L., priority 2020, published 2023):
“Also recorded” adds a separate entry of the source. Where two headings read alike, the source gives them in different places.

Columns and labels:
[1] = tested on: T. b. brucei L427 WT Blood-Stream Form; assay: Anti-parasitic activity against T. b. brucei blood-stream form (resazurin 72 h assay); type: cell-based; conditions: Table 2
CYP3A4 = CYP3A4 (Homo sapiens, UniProt P08684); assay: Early toxicity: CYP3A4 inhibition; type: in vitro ADME; conditions: Table 4a
CYP3A4, sequence (P08684 whole entry): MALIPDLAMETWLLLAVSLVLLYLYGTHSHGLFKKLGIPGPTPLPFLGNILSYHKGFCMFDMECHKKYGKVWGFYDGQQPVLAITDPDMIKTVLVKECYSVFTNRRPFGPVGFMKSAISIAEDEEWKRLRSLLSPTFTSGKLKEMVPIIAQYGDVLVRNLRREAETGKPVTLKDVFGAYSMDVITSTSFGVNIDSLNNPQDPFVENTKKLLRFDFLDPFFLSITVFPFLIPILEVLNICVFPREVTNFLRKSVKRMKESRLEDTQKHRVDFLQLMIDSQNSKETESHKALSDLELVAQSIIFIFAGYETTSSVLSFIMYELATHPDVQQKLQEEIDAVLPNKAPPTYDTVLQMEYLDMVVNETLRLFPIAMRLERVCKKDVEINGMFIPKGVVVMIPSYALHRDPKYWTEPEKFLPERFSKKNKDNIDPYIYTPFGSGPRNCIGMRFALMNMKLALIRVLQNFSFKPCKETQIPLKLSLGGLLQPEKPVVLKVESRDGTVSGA

hERG channel = hERG channel (Homo sapiens, UniProt Q12809); assay: Early toxicity: hERG inhibition
hERG channel, sequence (Q12809 whole entry): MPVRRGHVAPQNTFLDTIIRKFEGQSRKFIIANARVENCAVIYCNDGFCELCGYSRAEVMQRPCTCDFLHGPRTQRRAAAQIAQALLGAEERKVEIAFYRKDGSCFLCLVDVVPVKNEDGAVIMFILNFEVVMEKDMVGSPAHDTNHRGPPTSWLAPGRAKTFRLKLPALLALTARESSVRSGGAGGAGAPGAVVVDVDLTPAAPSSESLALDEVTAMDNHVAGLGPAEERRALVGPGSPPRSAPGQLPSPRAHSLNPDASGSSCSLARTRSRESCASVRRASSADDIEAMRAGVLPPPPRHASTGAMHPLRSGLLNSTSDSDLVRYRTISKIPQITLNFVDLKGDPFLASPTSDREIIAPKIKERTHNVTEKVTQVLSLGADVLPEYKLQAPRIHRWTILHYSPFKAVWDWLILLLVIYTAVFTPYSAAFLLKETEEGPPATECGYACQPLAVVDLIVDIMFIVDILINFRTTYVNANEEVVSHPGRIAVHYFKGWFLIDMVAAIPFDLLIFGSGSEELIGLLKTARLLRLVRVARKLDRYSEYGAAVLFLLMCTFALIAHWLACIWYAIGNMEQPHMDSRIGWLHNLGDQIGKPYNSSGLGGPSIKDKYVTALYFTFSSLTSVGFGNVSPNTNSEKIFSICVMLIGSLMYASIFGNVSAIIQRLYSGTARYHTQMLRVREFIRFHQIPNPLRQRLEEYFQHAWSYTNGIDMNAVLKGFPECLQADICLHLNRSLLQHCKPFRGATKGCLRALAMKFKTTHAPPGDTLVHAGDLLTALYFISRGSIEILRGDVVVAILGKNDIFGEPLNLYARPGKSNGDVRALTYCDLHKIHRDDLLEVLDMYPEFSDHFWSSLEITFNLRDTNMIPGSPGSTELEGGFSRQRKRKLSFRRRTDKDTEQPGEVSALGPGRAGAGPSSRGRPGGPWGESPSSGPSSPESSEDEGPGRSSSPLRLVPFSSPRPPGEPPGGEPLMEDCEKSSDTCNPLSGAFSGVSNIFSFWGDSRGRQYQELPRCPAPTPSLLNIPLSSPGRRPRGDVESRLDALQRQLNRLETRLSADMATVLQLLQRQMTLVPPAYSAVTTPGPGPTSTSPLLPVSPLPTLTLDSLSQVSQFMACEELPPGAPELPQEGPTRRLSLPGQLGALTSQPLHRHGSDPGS

CYP1A2 = biological target: T1, CYP1A2 (Homo sapiens, UniProt P05177); assay: Early toxicity: CYP1A2 inhibition; type: in vitro ADME; conditions: human, mean ± SD, Table 4a
T1 sequence (P05177 1-516): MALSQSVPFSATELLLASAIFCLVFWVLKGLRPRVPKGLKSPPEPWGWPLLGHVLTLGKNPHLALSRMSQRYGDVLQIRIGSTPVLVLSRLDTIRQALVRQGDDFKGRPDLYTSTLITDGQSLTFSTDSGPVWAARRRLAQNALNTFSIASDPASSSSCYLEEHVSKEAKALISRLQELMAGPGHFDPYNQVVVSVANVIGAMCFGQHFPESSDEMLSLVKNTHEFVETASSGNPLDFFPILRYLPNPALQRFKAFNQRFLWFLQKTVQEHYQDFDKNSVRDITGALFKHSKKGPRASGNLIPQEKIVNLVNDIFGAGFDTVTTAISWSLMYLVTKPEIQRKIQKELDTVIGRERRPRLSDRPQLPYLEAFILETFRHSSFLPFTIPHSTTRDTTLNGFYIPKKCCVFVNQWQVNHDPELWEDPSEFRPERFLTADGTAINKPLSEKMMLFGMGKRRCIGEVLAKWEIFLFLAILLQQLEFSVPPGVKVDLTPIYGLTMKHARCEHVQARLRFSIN

[2] = Toxicity MTT assay in PMA-differentiated THP-1 cells; type: cell-based, human; conditions: human, PMA-differentiated THP-1 cells (macrophages)
Description: (§1) The in vitro antiparasitic activity against L. infantum (MHOM/MA/67/ITMAP-263) and the toxicity against THP-1 macrophages is presented in Table 1.

[3] = tested on: PMA-differentiated THP-1 cells; assay: as above; type: cell-based, human; conditions: Table 2; read-out: Toxicity CC50 ± SD or NOAEL
Description: as §1

[4] = tested on: L. infantum axenic amastigotes expressing luciferase; assay: In vivo model of infection with L. infantum axenic amastigotes expressing luciferase; conditions: ten consecutive oral treatments with 10 mg/kg, 2 weeks after last treatment
Experimental: FIG. 4 illustrates the in vivo activity of compounds 18 and 19 in a model of infection with L. infantum axenic amastigotes expressing luciferase (10 consecutive treatments with 10 mg/kg of each compound, evaluated by limiting dilution assay 2 weeks after the last treatment).
In vivo activity of compounds 18 and 19 (ten consecutive oral treatments with 10 mg/kg of each compound, followed by a break of 2 weeks after last treatment), was studied in a model of infection with axenic amastigotes expressing luciferase, essentially as described in (Mendes Costa D. et al, J. Sci Rep. 2019 Dec. 12; 9(1):18989; Tavares J. et al., Methods Mol Biol. 2019; 1971:289-301). (FIG. 4).

[5] = tested on: L. infantum (MHOM/MA/67/ITMAP-263) intracellular amastigotes; assay: Anti-parasitic activity against L. infantum intracellular amastigotes (infection with axenic amastigotes luciferase positive); type: cell-based; conditions: Table 1
CYP2D6 = CYP2D6 (Homo sapiens, UniProt P10635); assay: Early toxicity: CYP2D6 inhibition; type: in vitro ADME; conditions: Table 4a
CYP2D6, sequence (P10635 whole entry): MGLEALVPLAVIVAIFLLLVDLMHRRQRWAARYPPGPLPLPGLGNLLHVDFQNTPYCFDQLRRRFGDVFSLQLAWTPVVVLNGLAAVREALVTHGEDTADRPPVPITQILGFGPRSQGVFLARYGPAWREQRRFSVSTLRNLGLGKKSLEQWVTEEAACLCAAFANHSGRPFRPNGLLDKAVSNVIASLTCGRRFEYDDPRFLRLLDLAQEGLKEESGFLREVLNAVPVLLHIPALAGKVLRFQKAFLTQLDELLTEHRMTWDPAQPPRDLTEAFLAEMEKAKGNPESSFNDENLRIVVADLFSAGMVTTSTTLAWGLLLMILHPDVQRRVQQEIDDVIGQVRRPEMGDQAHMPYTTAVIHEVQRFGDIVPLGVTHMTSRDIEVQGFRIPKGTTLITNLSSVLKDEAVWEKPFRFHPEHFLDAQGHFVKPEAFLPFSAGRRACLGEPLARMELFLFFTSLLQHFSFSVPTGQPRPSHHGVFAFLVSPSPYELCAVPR

mitochondria = assay: Early toxicity: mitochondrial toxicity; type: cell-based
[6] = Snapshot pharmacokinetics in plasma after oral gavage; type: in vivo, mice; conditions: mouse, plasma, po, healthy BALB/c mice, 20 mg/kg gavage, Table 13
Experimental: Pharmacology of 5-cyclopentadecylpentyl (2-(trimethylammonio)ethyl) phosphate (19) in mice.
Blood samples were collected from the tail vein at 0, 0.5, 0.75, 1, 3, 24 and 72 hours into heparinized tubes. Moreover, biodistribution of the molecule, 72h after administration, was determined in several organs of the treated mice, namely brain, liver, spleen, kidney, heart and bone marrow. […] J Chromatogr B, 865: 55-62) by liquid chromatography mass spectrometry (LC-MS/MS).

CYP2C19 = CYP2C19 (Homo sapiens, UniProt P33261); assay: Early toxicity: CYP2C19 inhibition; type: in vitro ADME; conditions: Table 4a
CYP2C19, sequence (P33261 whole entry): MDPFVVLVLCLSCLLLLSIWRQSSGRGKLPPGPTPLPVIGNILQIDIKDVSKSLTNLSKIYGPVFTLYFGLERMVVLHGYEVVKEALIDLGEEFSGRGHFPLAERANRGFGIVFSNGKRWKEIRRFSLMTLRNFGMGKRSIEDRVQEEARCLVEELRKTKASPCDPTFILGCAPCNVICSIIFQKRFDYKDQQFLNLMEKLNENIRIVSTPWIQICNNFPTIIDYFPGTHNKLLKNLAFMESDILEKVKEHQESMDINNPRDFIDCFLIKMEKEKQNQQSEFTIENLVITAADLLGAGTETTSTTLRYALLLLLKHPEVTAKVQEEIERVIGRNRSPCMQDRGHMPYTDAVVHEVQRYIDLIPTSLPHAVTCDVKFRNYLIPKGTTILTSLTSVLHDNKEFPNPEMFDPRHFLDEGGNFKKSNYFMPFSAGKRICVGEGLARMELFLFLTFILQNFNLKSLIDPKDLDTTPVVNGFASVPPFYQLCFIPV

CYP2C9 = CYP2C9 (Homo sapiens, UniProt P11712); assay: Early toxicity: CYP2C9 inhibition; type: in vitro ADME; conditions: human, mean ± SD, Table 4a
CYP2C9, sequence (P11712 whole entry): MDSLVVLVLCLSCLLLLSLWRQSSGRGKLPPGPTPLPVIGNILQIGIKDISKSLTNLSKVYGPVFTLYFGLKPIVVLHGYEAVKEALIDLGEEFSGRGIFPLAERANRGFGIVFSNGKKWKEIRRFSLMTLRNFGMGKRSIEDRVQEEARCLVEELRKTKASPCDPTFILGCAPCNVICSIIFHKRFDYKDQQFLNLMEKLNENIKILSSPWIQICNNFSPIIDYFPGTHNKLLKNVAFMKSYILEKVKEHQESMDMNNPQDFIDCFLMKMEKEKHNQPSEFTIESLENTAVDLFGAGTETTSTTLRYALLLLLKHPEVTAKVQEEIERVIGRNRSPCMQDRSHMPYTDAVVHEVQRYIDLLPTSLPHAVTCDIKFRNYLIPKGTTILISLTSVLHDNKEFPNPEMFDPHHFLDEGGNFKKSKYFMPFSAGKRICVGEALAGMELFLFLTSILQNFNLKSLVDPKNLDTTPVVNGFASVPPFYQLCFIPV

A549 = assay: Early toxicity: A549 cell growth; type: cell-based; conditions: 10 μM; 100% = not cytotoxic, 0% = cytostatic, −100% = cytotoxic

C[N+](C)(C)CCOP(=O)([O-])OCCCCC1CCCCCCCCCCCCCC1 [Compound 18, 4-cyclopentadecylbutyl (2-(trimethylammonio)ethyl) phosphate]
activity against T. b. brucei blood-stream form [1]: unexpectedly high activity in the low micromolar range | inhibition at 10 µM ([1]; Trypanosoma brucei, 10 μM, read-out: Single Dose Assay 10 μM Mean Inhibitory Activity (%) ± SD): 91 ± 12% | IC50 ([1]; Trypanosoma brucei, resazurin 72 h, read-out: Dose Response Curves IC50 ± SD): 7.44 ± 0.65 µM | Selectivity Index CC50/IC50 or NOAEL/IC50 ([1]; toxicity / T. b. brucei IC50): >13 | CYP3A4 interaction (CYP3A4): interact | inhibition at 10 µM (CYP3A4; human, 10 μM, mean ± SD, read-out: % inhibition CYP3A4): 38.1 ± 2.67% | Flag for Interference, hERG (hERG channel; Table 4b): (no) | inhibition at 10 µM (hERG channel; human): 34.8 ± 14% | inhibition at 10 µM (CYP1A2): 14 ± 1.17% | CC50 ([2]; THP-1 macrophages, Table 1, read-out: Toxicity CC50 ± SD or NOAEL): > 100 µM | IC50 ([2]; Table 4b, read-out: Cytotoxicity THP-1 (IC50)): > 100 µM | CC50 [3]: > 100 µM | parasitic burden in the spleen, liver or bone marrow [4]: not effective | inhibition at 10 µM ([5]; Leishmania infantum, 10 μM, read-out: Single Dose Assay 10 μM Mean Inhibitory Activity (%) ± SD): 97 ± 2% | IC50 ([5]; Leishmania infantum, read-out: Dose Response Curves IC50 ± SD): 0.6 ± 0.3 µM | Selectivity Index CC50/IC50 or NOAEL/IC50 ([5]; THP-1 toxicity / L. infantum IC50): >166 | CYP2D6 interaction / inhibition (CYP2D6; 10 μM): interact; also recorded: significant inhibition | inhibition at 10 µM (CYP2D6; human, mean ± SD): 64.5 ± 2.92% | % mitochondrial toxicity (mitochondria; 10 μM, 100% mitotoxic, 0% not mitotoxic): 109.49 ± 9.62% | mitochondrial toxicity (mitochondria; Table 4b): exhibit mitochondrial toxicity | AUC(0-inf) ([6]; read-out: AUC (0-∞)): 262 µg·h/mL | AUC(0-inf) ([6]; read-out: AUC (0-∞) (μM h/mL)): 586 µM·h | Cmax ([6]; read-out: Cmax): 20.3 µM | Cmax ([6]; read-out: Cmax (μg/mL)): 9.1 µg/mL | Tmax ([6]; read-out: tmax): 5 h | half-life ([6]; read-out: t½ (converted)): 16.3 h | CYP2C19 interaction / inhibition (CYP2C19; 10 μM): interact; also recorded: significant inhibition | inhibition at 10 µM (CYP2C19; human, mean ± SD): 33.3 ± 4.67% | inhibition at 10 µM (CYP2C9): 5.66 ± 5.52% | % cell growth A549 (A549): 132.80 ± 8.98%
